The target of the test is GST-RIPK1 (recombinant GST-RIPK1 kinase domain (residues 1-327)) (Homo sapiens (Human), UniProt Q13546). As to the kind of experiment: RIPK1-ADP-Glo Enzymatic Assay. Conditions: 25 nM GST-RIPK1, 300 μM ATP, 3 μM dephosphorylated-MBP, 30 min pre-incubation, 150 min reaction. The test is classed as biochemical. The procedure:
The enzymatic activity of RIPK1 is measured using an assay derived from ADP-Glo kit (TMPromega), which provides a luminescent-based ADP detection system. Specifically, the ADP generated by RIPK1 kinase is proportionally detected as luminescent signals in a homogenous fashion. In this context, the assessment of the inhibitory effect of small molecules (EC50) is measured by the effectiveness of the compounds to inhibit the ATP to ADP conversion by RIPK1.
In this assay, the potency (EC50) of each compound was determined from a ten-point (1:3 serial dilution; top compound concentration of 100000 nM) titration curve using the following outlined procedure. To each well of a white ProxiPlus 384 well-plate, 30 nL of compound (1% DMSO in final assay volume of 3 μL) was dispensed, followed by the addition of 2 μL of 1× assay buffer (25 mM Hepes 7.3, 20 mM MgCl2, 50 mM NaCl, 1 mM DTT, 0.005% Tween20, and 0.02% BSA) containing 37.5 nM of GST-RIPK1 (recombinant GST-RIPK1 kinase domain (residues 1-327) enzyme produced from baculovirus-transfected Sf21 cells: MW 62 kDa). Plates were placed in an ambient temperature humidified chamber for a 30 min pre-incubation with compound. Subsequently, each reaction was initiated by the addition of 1 μL 1× assay buffer containing 900 μM ATP and 3 μM dephosphorylated-MBP substrate. The final reaction in each well of 3 μL consists of 25 nM of GST-RIPK1, 300 μM ATP, and 3 μM dephosphorylated-MBP. Kinase reactions were allowed to proceed for 150 min prior to adding ADP-Glo reagents per Promega's outlined kit protocol. Dose-response curves were generated by plotting percent effect (% product conversion; Y-axis) vs. Log 10 compound concentrations (X-axis). EC50 values were calculated using a non-linear regression, four-parameters sigmoidal dose-response model.
(In general: ADP-Glo turns the ADP formed in a reaction into a luminescent signal.)

Chain of GST-RIPK1 (recombinant GST-RIPK1 kinase domain (residues 1-327)) (Q13546 1-327): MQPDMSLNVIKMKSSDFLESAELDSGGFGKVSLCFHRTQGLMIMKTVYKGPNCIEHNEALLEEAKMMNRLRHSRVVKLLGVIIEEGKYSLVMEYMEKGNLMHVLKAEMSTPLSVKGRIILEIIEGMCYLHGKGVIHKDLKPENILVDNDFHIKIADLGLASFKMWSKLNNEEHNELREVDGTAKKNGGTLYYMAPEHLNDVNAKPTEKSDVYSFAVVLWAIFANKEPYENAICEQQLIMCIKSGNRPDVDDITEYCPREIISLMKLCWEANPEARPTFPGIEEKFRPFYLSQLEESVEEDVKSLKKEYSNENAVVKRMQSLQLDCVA

In the case of `O=c1n(C23CC(C2)C3)nc2n1[C@H](c1cc(F)cc(F)c1)CC2` [Compound 1-7, (5S)-2-(bicyclo[1.1.1]pentan-1-yl)-5-(3,5-difluorophenyl)-2,5,6,7-tetrahydro-3H-pyrrolo[2,1-c][1,2,4]triazol-3-one], the half-maximal effective concentration (EC50) (in general, the concentration that produces a half-maximal response) is 98.4 nM.

`O=c1n(C23CC(Cl)(C2)C3)nc2n1[C@H](c1cc(F)cc(F)c1)CC2` [Compound 1-8, (5S)-2-(3-chlorobicyclo[1.1.1]pentan-1-yl)-5-(3,5-difluorophenyl)-2,5,6,7-tetrahydro-3H-pyrrolo[2,1-c][1,2,4]triazol-3-one]: the half-maximal effective concentration (EC50) was 21.8 nM.

`O=c1n(C23CC(F)(C2)C3)nc2n1[C@H](c1ccccc1F)CC2` [Compound 1-9, (5S)-2-(3-fluorobicyclo[1.1.1]pentan-1-yl)-5-(2-fluorophenyl)-2,5,6,7-tetrahydro-3H-pyrrolo[2,1-c][1,2,4]triazol-3-one]: the 50% effective concentration (EC50) was 26.1 nM.

`O=c1n(C23CC(F)(C2)C3)nc2n1[C@H](c1cncc(F)c1)CC2` [Compound 1-10, (5S)-2-(3-fluorobicyclo[1.1.1]pentan-1-yl)-5-(5-fluoropyridin-3-yl)-2,5,6,7-tetrahydro-3H-pyrrolo[2,1-c][1,2,4]triazol-3-one]: the EC50 is 272 nM.

In the case of `N#CC12CC(n3nc4n(c3=O)[C@H](c3cncc(F)c3)CC4)(C1)C2` [Compound 1-11, 3-[(5S)-5-(5-fluoropyridin-3-yl)-3-oxo-6,7-dihydro-3H-pyrrolo[2,1-c][1,2,4]triazol-2(5H)-yl]bicyclo[1.1.1]pentane-1-carbonitrile], the half-maximal effective concentration (EC50) is 300 nM.

Take `O=c1n(C23CC(c4ccccc4)(C2)C3)nc2n1[C@H](c1cc(F)cc(F)c1)CC2` [Compound 1-12, (5S)-5-(3,5-difluorophenyl)-2-(3-phenylbicyclo[1.1.1]pentan-1-yl)-2,5,6,7-tetrahydro-3H-pyrrolo[2,1-c][1,2,4]triazol-3-one]: the concentration giving a half-maximal response (EC50) stood at 49.1 nM.

Regarding `O=c1n(C23CC(c4ccccc4)(C2)C3)nc2n1[C@H](c1cncc(F)c1)CC2` [Compound 1-13, (5S)-5-(5-fluoropyridin-3-yl)-2-(3-phenylbicyclo[1.1.1]pentan-1-yl)-2,5,6,7-tetrahydro-3H-pyrrolo[2,1-c][1,2,4]triazol-3-one], the EC50 was 514 nM.

In the case of `CC12CC(n3nc4n(c3=O)[C@H](c3cc(F)cc(F)c3)CC4)(CO1)C2` [Compound 1-14, (5S)-5-(3,5-difluorophenyl)-2-(1-methyl-2-oxabicyclo[2.1.1]hexan-4-yl)-2,5,6,7-tetrahydro-3H-pyrrolo[2,1-c][1,2,4]triazol-3-one], the concentration for a half-maximal effect (EC50) turned out to be 152 nM.

On to `O=c1n(C23CC(Cl)(C2)C3)nc2n1[C@H](c1cncc(F)c1)CC2` [Compound 1-15, (5S)-2-(3-chlorobicyclo[1.1.1]pentan-1-yl)-5-(5-fluoropyridin-3-yl)-2,5,6,7-tetrahydro-3H-pyrrolo[2,1-c][1,2,4]triazol-3-one], for which the EC50 stood at 111 nM.

With `O=c1n(C23CC(F)(C2)C3)nc2n1[C@H](c1cccc(F)c1)CC2` [Compound 1-16, (S)-2-(3-fluorobicyclo[1.1.1]pentan-1-yl)-5-(3-fluorophenyl)-2,5,6,7-tetrahydro-3H-pyrrolo[2,1-c][1,2,4]triazol-3-one], the EC50 amounted to 23.1 nM.

In the case of `N#CC12CC(n3nc4n(c3=O)[C@H](c3ccccc3)CC4)(C1)C2` [Compound 1-17, 3-[(5S)-3-oxo-5-phenyl-6,7-dihydro-3H-pyrrolo[2,1-c][1,2,4]triazol-2(5H)-yl]bicyclo[1.1.1]pentane-1-carbonitrile], the EC50 was 36.9 nM.

Consider `COC(=O)C12CC(n3nc4n(c3=O)[C@H](c3cc(F)cc(F)c3)CC4)(C1)C2` [Compound 1-18, methyl 3-[(5S)-5-(3,5-difluorophenyl)-3-oxo-6,7-dihydro-3H-pyrrolo[2,1-c][1,2,4]triazol-2(5H)-yl]bicyclo[1.1.1]pentane-1-carboxylate], for which the 50% effective concentration (EC50) turned out to be 114 nM.

In the case of `COC(=O)C12CC(n3nc4n(c3=O)[C@H](c3ccccc3)CC4)(C1)C2` [Compound 1-19, methyl 3-[(5S)-3-oxo-5-phenyl-6,7-dihydro-3H-pyrrolo[2,1-c][1,2,4]triazol-2(5H)-yl]bicyclo[1.1.1]pentane-1-carboxylate], the EC50 amounted to 289 nM.

Take `O=c1n(C23C4C5C2C2C3C4C52F)nc2n1[C@H](c1cc(F)cc(F)c1)CC2` (stereo partly drawn) [Compound 1-20, (5S)-5-(3,5-difluorophenyl)-2-(4-fluoropentacy-clo[4.2.0.0~2,5~.0~3,8~.0~4,7~]octan-1-yl)-2,5,6,7-tetrahydro-3H-pyrrolo[2,1-c][1,2,4]triazol-3-one]: the 50% effective concentration (EC50) was 38.5 nM.

As for `N#CC12C3C4C1C1C2C3C41n1nc2n(c1=O)[C@H](c1cc(F)cc(F)c1)CC2` (stereo partly drawn) [Compound 1-21, 4-[(5S)-5-(3,5-difluorophenyl)-3-oxo-6,7-dihydro-3H-pyrrolo[2,1-c][1,2,4]triazol-2(5H)-yl]penta-cyclo[4.2.0.0~2,5~.0~3,8~.0~4.7~] octane-1-carbonitrile], the EC50 worked out at 141 nM.

In the case of `N#CC12CC(n3nc4n(c3=O)[C@H](c3cncc(Cl)c3)CC4)(C1)C2` [Compound 1-22, (S)-3-(5-(5-chloropyridin-3-yl)-3-oxo-6,7-dihydro-3H-pyrrolo[2,1-c][1,2,4]triazol-2(5H)-yl)bicyclo[1.1.1]pentane-1-carbonitrile], the EC50 was 485 nM.

`N#CC12CC(n3nc4n(c3=O)[C@H](c3ccccc3F)CC4)(C1)C2` [Compound 1-23, 3-[(5S)-5-(2-fluorophenyl)-3-oxo-6,7-dihydro-3H-pyrrolo[2,1-c][1,2,4]triazol-2(5H)-yl]bicyclo[1.1.1]pentane-1-carbonitrile]: the 50% effective concentration (EC50) amounted to 31.8 nM.

Regarding `N#CC12CC(n3nc4n(c3=O)[C@H](c3cccc(F)c3)CC4)(C1)C2` [Compound 1-24, (S)-3-(5-(3-fluorophenyl)-3-oxo-6,7-dihydro-3H-pyrrolo[2,1-c][1,2,4]triazol-2(5H)-yl)bicyclo[1.1.1]pentane-1-caronitrile], the concentration for a half-maximal effect (EC50) amounted to 29.7 nM.

With `O=c1n(C23CCC(CC2)CC3)nc2n1[C@H](c1cc(F)cc(F)c1)CC2` [Compound 1-25, (5S)-2-(bicyclo[2.2.2]octan-1-yl)-5-(3,5-difluorophenyl)-2,5,6,7-tetrahydro-3H-pyrrolo[2,1-c][1,2,4]triazol-3-one], the EC50 was found to be 685 nM.

Consider `COC12CCC(n3nc4n(c3=O)[C@H](c3cc(F)cc(F)c3)CC4)(CC1)C2` [Compound 1-26, (5S)-5-(3,5-difluorophenyl)-2-(4-methoxybicyclo[2.2.1]heptan-1-yl)-2,5,6,7-tetrahydro-3H-pyrrolo[2,1-c][1,2,4]triazol-3-one], for which the EC50 came to 377 nM.

As for `O=c1n(C23CCC(C(F)F)(CC2)C3)nc2n1[C@H](c1cc(F)cc(F)c1)CC2` [Compound 1-27, (5S)-2-[4-(difluoromethyl)bicyclo[2.2.1]heptan-1-yl]-5-(3,5-difluorophenyl)-2,5,6,7-tetrahydro-3H-pyrrolo[2,1-c][1,2,4]triazol-3-one], the half-maximal effective concentration (EC50) was found to be 537 nM.

For the compound `O=c1n(C23CC(C(F)F)(C2)C3)nc2n1[C@H](c1cc(F)cc(F)c1)CC2` [Compound 1-28, (5S)-2-[3-(difluoromethyl)bicyclo[1.1.1]pentan-1-yl]-5-(3,5-difluorophenyl)-2,5,6,7-tetrahydro-3H-pyrrolo[2,1-c][1,2,4]triazol-3-one], the EC50 was 25.9 nM.

Turning to `N#CC12CCC(n3nc4n(c3=O)[C@H](c3cc(F)cc(F)c3)CC4)(CC1)C2` [Compound 1-29, 4-[(5S)-5-(3,5-difluorophenyl)-3-oxo-6,7-dihydro-3H-pyrrolo[2,1-c][1,2,4]triazol-2(5H)-yl]bicyclo[2.2.1]heptane-1-carbonitrile], the EC50 amounted to 68 nM.

Regarding `N#CC12CCC(n3nc4n(c3=O)[C@H](c3ccccc3)CC4)(CC1)C2` [Compound 1-30, 4-[(5S)-3-oxo-5-phenyl-6,7-dihydro-3H-pyrrolo[2,1-c][1,2,4]triazol-2(5H)-yl]bicyclo[2.2.1]heptane-1-carbonitrile], the 50% effective concentration (EC50) came to 87.4 nM.

As for `O=c1n(C23CC(C(F)F)(C2)C3)nc2n1[C@H](c1ccccc1)CC2` [Compound 1-31, (5S)-2-[3-(difluoromethyl)bicyclo[1.1.1]pentan-1-yl]-5-phenyl-2,5,6,7-tetrahydro-3H-pyrrolo[2,1-c][1,2,4]triazol-3-one], the EC50 worked out at 36.8 nM.

Turning to `CC(F)(F)C12CC(n3nc4n(c3=O)[C@H](c3ccccc3)CC4)(C1)C2` [Compound 1-32, (5S)-2-[3-(1,1-difluoroethyl)bicyclo[1.1.1]pentan-1-yl]-5-phenyl-2,5,6,7-tetrahydro-3H-pyrrolo[2,1-c][1,2,4]triazol-3-one], the 50% effective concentration (EC50) is 36.4 nM.

In the case of `O=c1n(C23CC(C(F)F)(C2)C3)nc2n1[C@H](c1cccc(F)c1)CC2` [Compound 1-33, (5S)-2-[3-(difluoromethyl)bicyclo[1.1.1]pentan-1-yl]-5-(3-fluorophenyl)-2,5,6,7-tetrahydro-3H-pyrrolo[2,1-c][1,2,4]triazol-3-one], the concentration for a half-maximal effect (EC50) was 30.4 nM.

(Values after patent US20240025912A1 (Merck Sharp & Dohme LLC, priority 2022, published 2024).)
